In EP0908457B1, “3-(1,2-benzisothiazol- and isoxazol-5-Y1)-2,4(1H,3H)-pyrimidinedione or thione and 3-(1,2-benzisothiazol- and isoxazol-5-y1)-4(3H)-pyrimidinone or thione herbicidal agents” (BASF AKTIENGESELLSCHAFT, priority 1997, dated 1999):

How the values were obtained:
[1] = tested on: Echinochloa oryzoides (Ard.) Fritsch.; test: Preemergence weed control under flooded paddy conditions, ECHORC (Watergrass (Calif.)); format: in vivo; conditions: flooded paddy, rated three to four weeks after treatment; on herbicidal effect rating, ECHORC: meaning of each grade not given here
Cyperus iria = test: Preemergence weed control under flooded paddy conditions, CYPIR (Rice Flatsedge); format: in vivo; conditions: flooded paddy, rated three to four weeks after treatment; on herbicidal effect rating, CYPIR: meaning of each grade not given here
[2] = tested on: Cyperus serotinus, Rottb.; test: Preemergence weed control under flooded paddy conditions, CYPSE (Flatsedge); format: in vivo; conditions: rated three to four weeks after treatment; on herbicidal effect rating, CYPSE: meaning of each grade not given here
[3] = tested on: Monochoria vaginalis, Presl.; test: Preemergence weed control under flooded paddy conditions, MOOVA (Monochoria); format: in vivo; conditions: flooded paddy, rated three to four weeks after treatment; on herbicidal effect rating, MOOVA: meaning of each grade not given here
Sagittaria pygmaea, L. = test: Preemergence weed control under flooded paddy conditions, SAGPY (Arrowhead (Pygmaea)); format: in vivo; conditions: flooded paddy, rated three to four weeks after treatment; on herbicidal effect rating, SAGPY: meaning of each grade not given here
[4] = tested on: Oryza sativa, (L.) Tebonnet; test: Rice tolerance to post-transplant applications under flooded paddy conditions (Example 187), ORYSAT (Rice, Tebonnet); conditions: rated three to four weeks after treatment
[5] = Rate 0.0320 kg/ha, preemergence weeds
[6] = Rate 0.0620 kg/ha, preemergence weeds
[7] = Rate 0.1250 kg/ha, preemergence weeds
[8] = Rate 0.2500 kg/ha, preemergence weeds
[9] = Rate 0.0320 kg/ha, preemergence
[10] = Rate 0.0620 kg/ha, preemergence
[11] = Rate 0.1250 kg/ha, preemergence
[12] = Rate 0.2500 kg/ha, preemergence
[13] = 0.0313 kg/ha, preemergence weeds
[14] = 0.0625 kg/ha, preemergence weeds
[15] = 0.1250 kg/ha, preemergence weeds
[16] = 0.2500 kg/ha, preemergence weeds

C[C@H](Br)[C@H](Br)c1nsc2ccc(-n3c(=O)cc(C(F)(F)F)n(C)c3=O)cc12 [Example 302, 2,4(1H,3H)-Pyrimidinedione, 3-[3-(1,2-dibromopropyl)-1,2-benzisothiazol-5-yl]-1-methyl-6-(trifluoromethyl)-, (1R,2S)-]
herbicidal effect rating, ECHORC [1, 5]: 4.0
herbicidal effect rating, ECHORC [1, 6]: 5.0
herbicidal effect rating, ECHORC [1, 7]: 8.0
herbicidal effect rating, ECHORC [1, 8]: 8.5
herbicidal effect rating, CYPIR (Cyperus iria; [5]): 8.0
herbicidal effect rating, CYPIR (Cyperus iria; [6]): 8.0
herbicidal effect rating, CYPIR (Cyperus iria; [7]): 8.5
herbicidal effect rating, CYPIR (Cyperus iria; [8]): 8.5
herbicidal effect rating, CYPSE [2, 5]: 4.5
herbicidal effect rating, CYPSE [2, 6]: 4.5
herbicidal effect rating, CYPSE [2, 7]: 4.5
herbicidal effect rating, CYPSE [2, 8]: 6.0
herbicidal effect rating, MOOVA [3, 5]: 7.0
herbicidal effect rating, MOOVA [3, 6]: 7.0
herbicidal effect rating, MOOVA [3, 7]: 9.0
herbicidal effect rating, MOOVA [3, 8]: 9.0
herbicidal effect rating, SAGPY (Sagittaria pygmaea, L.; [5]): 0.0
herbicidal effect rating, SAGPY (Sagittaria pygmaea, L.; [6]): 0.0
herbicidal effect rating, SAGPY (Sagittaria pygmaea, L.; [7]): 9.0
herbicidal effect rating, SAGPY (Sagittaria pygmaea, L.; [8]): 9.0
herbicidal effect rating ORYSAT ([4]; Rate 0.0320 kg/ha): 1.0
herbicidal effect rating ORYSAT ([4]; Rate 0.0620 kg/ha): 4.5
herbicidal effect rating ORYSAT ([4]; Rate 0.1250 kg/ha): 7.0
herbicidal effect rating ORYSAT ([4]; Rate 0.2500 kg/ha): 8.0

Cn1c(C(F)(F)F)cc(=O)n(-c2ccc3snc(C(C#N)=Cc4ccco4)c3c2)c1=O [Example 594, 1,2-Benzisothiazole-3-acetonitrile, 5-[3,6-dihydro-3-methyl-2,6-dioxo-4-(trifluoromethyl)-1(2H)-pyrimidinyl]-alpha-furfurylidene-]
herbicidal effect rating, ECHORC [1, 9]: 3.0
herbicidal effect rating, ECHORC [1, 10]: 5.0
herbicidal effect rating, ECHORC [1, 11]: 6.0
herbicidal effect rating, ECHORC [1, 12]: 7.0
herbicidal effect rating, CYPIR (Cyperus iria; [9]): 3.0
herbicidal effect rating, CYPIR (Cyperus iria; [10]): 5.0
herbicidal effect rating, CYPIR (Cyperus iria; [11]): 5.0
herbicidal effect rating, CYPIR (Cyperus iria; [12]): 9.0
herbicidal effect rating, CYPSE [2, 9]: 0.0
herbicidal effect rating, MOOVA [3, 9]: 6.0
herbicidal effect rating, MOOVA [3, 10]: 7.0
herbicidal effect rating, MOOVA [3, 11]: 9.0
herbicidal effect rating, MOOVA [3, 12]: 9.0
herbicidal effect rating, SAGPY (Sagittaria pygmaea, L.; [9]): 2.0
herbicidal effect rating, SAGPY (Sagittaria pygmaea, L.; [10]): 4.0
herbicidal effect rating, SAGPY (Sagittaria pygmaea, L.; [11]): 5.0
herbicidal effect rating ORYSAT ([4]; Rate 0.0320 kg/ha): 1.0
herbicidal effect rating ORYSAT ([4]; Rate 0.0620 kg/ha): 2.0
herbicidal effect rating ORYSAT ([4]; Rate 0.1250 kg/ha): 2.0
herbicidal effect rating ORYSAT ([4]; Rate 0.2500 kg/ha): 3.0

Cn1c(C(F)(F)F)cc(=O)n(-c2ccc3snc(C(C)(C)C(=O)OCc4ccco4)c3c2)c1=O [Example 487, 1,2-Benzisothiazole-3-acetic acid, 5-[3,6-dihydro-3-methyl-2,6-dioxo-4-(trifluoromethyl)-1(2H)-pyrimidinyl]-alpha,alpha-dimethyl-, furfuryl ester]
ECHORC herbicidal rating ([1]; 0.0320 kg/ha, preemergence): 6.0
ECHORC herbicidal rating ([1]; 0.0620 kg/ha, preemergence): 7.0
ECHORC herbicidal rating ([1]; 0.1250 kg/ha, preemergence): 7.0
ECHORC herbicidal rating ([1]; 0.2500 kg/ha, preemergence): 9.0
CYPIR herbicidal rating (Cyperus iria; 0.0320 kg/ha, preemergence): 4.0
CYPIR herbicidal rating (Cyperus iria; 0.0620 kg/ha, preemergence): 5.0
CYPIR herbicidal rating (Cyperus iria; 0.1250 kg/ha, preemergence): 6.0
CYPIR herbicidal rating (Cyperus iria; 0.2500 kg/ha, preemergence): 9.0
CYPSE herbicidal rating ([2]; 0.2500 kg/ha, preemergence): 3.0
MOOVA herbicidal rating ([3]; 0.0320 kg/ha, preemergence): 7.0
MOOVA herbicidal rating ([3]; 0.0620 kg/ha, preemergence): 9.0
MOOVA herbicidal rating ([3]; 0.1250 kg/ha, preemergence): 9.0
MOOVA herbicidal rating ([3]; 0.2500 kg/ha, preemergence): 9.0
SAGPY herbicidal rating (Sagittaria pygmaea, L.; 0.0320 kg/ha, preemergence): 4.0
SAGPY herbicidal rating (Sagittaria pygmaea, L.; 0.0620 kg/ha, preemergence): 5.0
SAGPY herbicidal rating (Sagittaria pygmaea, L.; 0.1250 kg/ha, preemergence): 6.0
SAGPY herbicidal rating (Sagittaria pygmaea, L.; 0.2500 kg/ha, preemergence): 7.0
ORYSAT herbicidal rating (rice tolerance) ([4]; 0.0320 kg/ha): 2.0
ORYSAT herbicidal rating (rice tolerance) ([4]; 0.0620 kg/ha): 3.0
ORYSAT herbicidal rating (rice tolerance) ([4]; 0.1250 kg/ha): 6.0
ORYSAT herbicidal rating (rice tolerance) ([4]; 0.2500 kg/ha): 7.0

C#CCNC(=O)COc1ccc(C)cc1-c1noc2ccc(-n3c(=O)cc(C(F)(F)F)n(C)c3=O)cc12 [Example 193, 2-{{2-{5-[3,6-Dihydro-3-methyl-2,6-dioxo-4-(trifluoromethyl)-1(2H)-pyrimidinyl]-1,2-benzisoxazol-3-yl}-p-tolyl}oxy}-N-(2-propynyl)acetamide]
herbicidal effect rating, ECHORC [1, 13]: 0.0
herbicidal effect rating, ECHORC [1, 14]: 0.0
herbicidal effect rating, ECHORC [1, 15]: 0.0
herbicidal effect rating, ECHORC [1, 16]: 0.0
herbicidal effect rating, CYPIR (Cyperus iria; [13]): 0.0
herbicidal effect rating, CYPIR (Cyperus iria; [14]): 0.0
herbicidal effect rating, CYPIR (Cyperus iria; [15]): 0.0
herbicidal effect rating, CYPIR (Cyperus iria; [16]): 0.0
herbicidal effect rating, CYPSE [2, 13]: 0.0
herbicidal effect rating, CYPSE [2, 14]: 0.0
herbicidal effect rating, CYPSE [2, 15]: 0.0
herbicidal effect rating, CYPSE [2, 16]: 0.0
herbicidal effect rating, MOOVA [3, 13]: 2.0
herbicidal effect rating, MOOVA [3, 14]: 4.0
herbicidal effect rating, MOOVA [3, 15]: 9.0
herbicidal effect rating, MOOVA [3, 16]: 9.0
herbicidal effect rating, SAGPY (Sagittaria pygmaea, L.; [13]): 0.0
herbicidal effect rating, SAGPY (Sagittaria pygmaea, L.; [14]): 0.0
herbicidal effect rating, SAGPY (Sagittaria pygmaea, L.; [15]): 0.0
herbicidal effect rating, SAGPY (Sagittaria pygmaea, L.; [16]): 0.0
herbicidal effect rating, ORYSAT (rice tolerance) ([4]; 0.0313 kg/ha): 0.0
herbicidal effect rating, ORYSAT (rice tolerance) ([4]; 0.0625 kg/ha): 0.0
herbicidal effect rating, ORYSAT (rice tolerance) ([4]; 0.1250 kg/ha): 0.0
herbicidal effect rating, ORYSAT (rice tolerance) ([4]; 0.2500 kg/ha): 1.0

Cn1c(C(F)(F)F)cc(=O)n(-c2ccc3snc(COCc4ccc(Cl)cc4)c3c2)c1=O [Example 584, 2,4(1H,3H)-Pyrimidinedione, 3-{3-{[(p-chlorobenzyl)oxy]methyl}-1,2-benzisothiazol-5-yl}-1-methyl-6-(trifluoromethyl)-]
herbicidal effect rating, ECHORC [1, 9]: 6.0
herbicidal effect rating, ECHORC [1, 10]: 9.0
herbicidal effect rating, ECHORC [1, 11]: 9.0
herbicidal effect rating, ECHORC [1, 12]: 9.0
herbicidal effect rating, CYPIR (Cyperus iria; [9]): 1.5
herbicidal effect rating, CYPIR (Cyperus iria; [10]): 6.0
herbicidal effect rating, CYPIR (Cyperus iria; [11]): 9.0
herbicidal effect rating, CYPIR (Cyperus iria; [12]): 9.0
herbicidal effect rating, CYPSE [2, 9]: 0.0
herbicidal effect rating, CYPSE [2, 10]: 0.0
herbicidal effect rating, CYPSE [2, 12]: 0.0
herbicidal effect rating, MOOVA [3, 9]: 3.0
herbicidal effect rating, MOOVA [3, 10]: 8.0
herbicidal effect rating, MOOVA [3, 11]: 9.0
herbicidal effect rating, MOOVA [3, 12]: 9.0
herbicidal effect rating, SAGPY (Sagittaria pygmaea, L.; [9]): 0.0
herbicidal effect rating, SAGPY (Sagittaria pygmaea, L.; [10]): 1.5
herbicidal effect rating, SAGPY (Sagittaria pygmaea, L.; [11]): 4.0
herbicidal effect rating, SAGPY (Sagittaria pygmaea, L.; [12]): 2.0
herbicidal effect rating ORYSAT ([4]; Rate 0.0320 kg/ha): 0.0
herbicidal effect rating ORYSAT ([4]; Rate 0.0620 kg/ha): 1.0
herbicidal effect rating ORYSAT ([4]; Rate 0.1250 kg/ha): 1.0
herbicidal effect rating ORYSAT ([4]; Rate 0.2500 kg/ha): 3.5
